The results in this text go back to patent US11124523B2, “2,6-dioxaspiro [4,5] decane derivatives and preparation method therefor and pharmaceutical applications thereof” (SHANDONG LUYE PHARMACEUTICAL CO., LTD., priority 2017, dated 2021).

Data set [1] is described as follows: Metabolic stability in liver microsomes. Format: in vitro ADME. To be noted: pH 7.4; human liver microsomes 0.5 mg protein/mL; 45 mg microsome protein/g liver, 20 g liver/kg; read-out: Intrinsic Clearance CLint(liver) in Human Liver. As to the method: Test 3: Metabolic Stability in Liver Microsomes
3.1 Experimental Purpose: To test the metabolic stability of the compounds of the present disclosure in human liver microsomes
a. All samples as well as testosterone, diclofenac and propafenone acting as reference substances were dissolved in DMSO to a storage concentration of 10 mM.
b. Intermediate Solution: 5 μL of the substance to be tested or the reference substance was diluted with 45 μL of DMSO (with 450 μL of 1:1 methanol/water).
c. Working Solution: the intermediate solution was diluted with 450 μL of 100 mM potassium phosphate buffer solution (pH 7.4).
Assay Buffer: 100 mM potassium phosphate buffer (pH 7.4) • 10 mM MgCl2
Liver Microsome Solution (final concentration: 0.5 mg protein/mL):
Human liver microsomes, obtained from BD, Cat No. 452117, Lot No. 38291
b. 10 μL of the working solution containing the substance to be tested or the reference substance was added to each of plates (T0, T5, T10, T20, T30, T60, NCF60).
c. The liver microsome solution was dispensed into a 96-well plate in an amount of 680 μL/well, then 80 was added, and then T was added to each of the plates. The above incubation plate was placed at 37° C. and pre-incubated for approximately 10 minutes.
d. 10 μL of 100 mM potassium phosphate buffer was added to each well in the NCF60 plate.
e. After the pre-incubation was finished, the NADPH regeneration system working solution was dispensed into the 96-well plate in an amount of 90 μL/well, and then added to each of the plates in an amount of 10 μL/well to start the reaction.
f. The plates were incubated for an appropriate time (e.g., 5, 10, 20, 30, or 60 minutes).
g. The stop solution (refrigerated at 4° C., containing 100 ng/mL Tolbutamide and 100 ng/mL Labetalol) was added to each sample well in an amount of 300 μL/well.
h. The sample plates were shaken well for about 10 minutes and centrifuged at 4,000 rpm for 20 minutes at 4° C. During the centrifugation, 300 μL of HPLC water was added to each well, and 100 μL of the supernatant was taken for LC-MS/MS analysis.
T1/2 and Clint(mic) were calculated by the following formula: […]
Each gram of liver contained 45 mg of microsome protein, and the liver weight was 20 g/kg in a human.
Ct was the concentration at time t, t was the incubation time, C0 was the concentration at time 0, Ke was an elimination rate constant, Clint(mic) was the intrinsic clearance in liver microsomes, and Clint(liver) was the intrinsic clearance in liver. CLint(mic)=0.693/half-life/mg of microsome protein per mL(concentration of microsomes during incubation) CLint(liver)=CLint(mic)×mg of microsome protein/g of liver weight×a ratio of liver weight to body weight 3.4 Test Results
On the technique in general: Liver microsomes are a subcellular fraction often used to study metabolism.

The target of data set [2] is T1, human μ-subtype opioid receptor (hMOR) (Homo sapiens (Human), UniProt P35372). In words: MOR cAMP agonist activity test. Format: cell-based. The conditions noted are these: for Emax: maximum effect of enkephalin DAMGO was 100%. As to the method:
Test 1: MOR cAMP Agonist Activity Test
1.1 Experimental Purpose: To test the cAMP agonist activity of the compounds of the present disclosure on the human μ-subtype opioid receptor (hMOR).
a. Compound samples were dissolved in DMSO to a storage concentration of 10 mM.
(§1) b. A series of diluted samples were formulated on a 384-well LDV plate. A total of 11 concentration points were obtained by 3.162-fold gradient dilution.
c. The series of diluted samples were transferred to an experimental plate (Corning-3824) by using an Echo machine, wherein 30 nL was transferred corresponding to each well.
The experiment was performed using a cAMP detection kit from Cisbio (Cisbio #62AM4PEJ).
a. Assay buffer and stimulation buffer (STB) required for the experiment were formulated.
Stimulation Buffer: formulated with the assay buffer, containing 5 μM NKH477 (CAS: 138605-00-2) and 200 μM IBMX (3-isobutyl-1-methylxanthine)
b. […] The number of cells in the well was 10,000 cells/well.
c. The experimental plate was placed in a 37° C. constant-temperature incubator for incubation. The incubation was performed for 40 minutes.
d. A cAMP standard concentration curve was prepared. The first concentration point was at 2848 nM, and a total of sixteen detection concentrations were obtained by 4-fold gradient dilution. There were three replicates for each concentration point.
e. The cAMP detection kit from Cisbio was provided therein with a d2-labeled cAMP reagent (d2 reagent) and an Eu-labeled cAMP antibody reagent (Crypate reagent). The above two reagents were formulated according to the kit instructions, and then added to the sample experimental plate and to the cAMP standard concentration experimental plate, respectively. It was necessary to add 5 μL of the d2 reagent and then 5 μL of the Cryptate reagent to each well.
f. After the experimental plates were left at room temperature for 60 minutes, the experimental plates were read on the Envision.

Data set [3] concerns the target T1, human μ-subtype opioid receptor (hMOR). In words: MOR β-arrestin-2 agonist activity test. Type of data set: cell-based. The conditions noted are these: for Emax: maximum effect of enkephalin DAMGO was 100%, about 0% = no actual agonist activity. As to the method: Test 2: β-Arrestin-2 Agonist Activity Test
2.1 Experimental Purpose: To test the β-arrestin-2 agonist activity of the compounds of the present disclosure on the human μ-subtype opioid receptor (hMOR).
a. All samples were dissolved in DMSO to a storage concentration of 10 mM.
as §1
c. The series of diluted samples were transferred to an experimental plate by using an Echo machine, wherein 60 nL of the compound was transferred corresponding to each well.
d. 60 nL of 3.33 mM DAMGO (as HPE) and 60 nL of DMSO (as ZPE) were transferred to the corresponding positions on the experimental plate by using the Echo machine.
The experiment was performed using PathHunter Detection Kit from DiscoveRX Cooperation (DiscoveRX #93-0213C3)
a. Assay buffer and PathHunter detection reagent required for the experiment were formulated.
Assay Buffer: 1×DPBS buffer
PathHunter Detection Reagent: The kit was provided therein with three constituents.
c. The experimental plate was centrifuged at 300 rpm for 30 s and incubated at room temperature for 2 hours.
d. 6 μL of the PathHunter detection reagent was added to each well of the experimental plate.
e. The experimental plate was centrifuged at 300 rpm for 30 seconds, then left at room temperature for 60 minutes, and then read on the Envision.

Data set [4] is described as follows: Pharmacokinetics of the compounds in rats. Type of data set: in vivo, rat. As to the method:
6.1 Experimental Purpose: To measure, using a LC/MS/MS method, the medicament concentrations of the compound in plasma and specific tissues at different time points after the compound was administered by a single intravenous injection (IV) to 7-9-week-old male SD rats used as test animals, to study on the pharmacokinetic behavior of the compound of the present disclosure in rats, and to evaluate the pharmacokinetic characteristics thereof. 6.2 Compound Formulation
Each of them was formulated at a concentration of 1 mg/mL and was used for IV (intravenous injection) administration.
The actual weights of the rats were weighed on the day of administration and volumes to be administered were calculated. The above formulated solutions to be administered were administered by injection into caudal veins of rats.
About 0.2 mL of whole blood samples were collected by means of jugular vein puncture at the time set in the experimental protocol, and the actual blood collection time was recorded in the experimental records. All the blood samples were added to labeled plastic centrifuge tubes to which K2-EDTA anticoagulant was added in advance. After the blood samples were collected, they were centrifuged at 3,000 g for 10 minutes at 4° C. to prepare the supernatant plasma, and the plasma was stored at −20° C. or a lower temperature for LC-MS/MS analysis.
The concentrations of the compounds in rat plasma were measured by using high-performance liquid chromatography-tandem mass spectrometry (LC-MS/MS). The retention durations of the compounds and internal standard, chromatogram acquisition, and integration of chromatograms were processed using the software Analyst (Applied Biosystems), and data statistics were processed using the software Watson LIMS (Thermo Fisher Scientific) or Analyst (Applied Biosystems). The plasma concentration was processed using a non-compartmental model of WinNonlin™ Version 6.3 (Pharsight, Mountain View, Calif.) which was a pharmacokinetic software, and the pharmacokinetic parameters were calculated using a linear logarithmic trapezoidal method.

[5] abbreviates: >30000 nM = greater than the highest detection concentration, read-out: MOR β-arrestin-2 EC50.

The structures appear in SMILES notation. Counter-ions that a name gives are not always drawn.

Usually EC50 stands for the concentration giving half of the maximal effect. As usually defined, the Emax is the size of the effect at its maximum, as opposed to the concentration needed. On to `COc1ccsc1CNCC[C@@]1(c2ccc(F)cc2)CCO[C@]2(CCOC2)C1` [(+)-3], for which the CLint scaled in data set [1] is 39 mL/min/kg. Moreover, the half-maximal effective concentration (EC50) was 3 nM in data set [2] and above 30000 nM in data set [3] (setting [5]). The maximal response (Emax) in data set [2] was 82%; in data set [3], around 0%.
For `Fc1ccc([C@]2(CCNCc3scc4c3CCC4)CCO[C@]3(CCOC3)C2)nc1` [(+)-5], the Emax in data set [2] is 96.5%; in data set [3], around 0%. Moreover, the EC50 in data set [3] (setting [5]) is above 30000 nM. Further, the “Apparent Clearance Cl” value in data set [4] (male SD rats, single IV, mg/Kg: Comparative Compound 1 1.80, (+)-5 2.40, (+)-16 1.76, HCl salt of (+)-23 1.71) was 58.9 mL/min/kg. Besides, the Vd in data set [4] (male, SD, rat, plasma, iv, read-out: Apparent Distribution Volume Vd) was 3.6 L/kg. Further, the AUC(0-inf) in data set [4] (male, SD, rat, plasma, iv, read-out: Area under the Curve AUC0-inf) stood at 1.4 µM·h. Further, the half-life in data set [4] (male, SD, rat, plasma, iv, read-out: Hal-life T1/2 (converted)) is 54 min. The C0 in data set [4] (male, SD, rat, plasma, iv, read-out: Initial Concentration C0) came out at 1810 nM. Moreover, in data set [4] (rats, IV, sampling point […], mg/Kg: Comparative Compound 1 0.56, (+)-5 2.40, (+)-16 1.76, HCl salt of (+)-23 1.71), the “Brain/Plasm Ratio B/P ratio” value was 2.19.
As for `c1ccc([C@]2(CCNCc3scc4c3COC4)CCO[C@]3(CCOC3)C2)nc1` [(+)-7], the concentration giving a half-maximal response (EC50) in data set [2] is 14.1 nM; in data set [3] (setting [5]) it was above 30000 nM. Besides, the Emax was 90.4% in data set [2] and around 0% in data set [3].
For `Cc1cc(C)cc(CNCC[C@@]2(c3ccccn3)CCO[C@]3(CCOC3)C2)c1` [(+)-10], in that order: 11.6 nM, above 30000 nM, 96.6% and around 0%.
For `Cc1ccsc1CNCC[C@@]1(c2ccc(F)cc2)CCO[C@]2(CCOC2)C1` [(+)-13], in that order: 4.1 nM, above 30000 nM, 61.2% and around 0%.
Take `Fc1ccc([C@]2(CCNCc3cccs3)CCO[C@]3(CCOC3)C2)cc1` [(+)-14]: the Emax in data set [3] was around 0%.
`Fc1ccc([C@]2(CCNCc3ccc(Cl)cc3)CCO[C@]3(CCOC3)C2)nc1` [(+)-17]: the values for the EC50 in data set [2] and in data set [3] (setting [5]) were 8.9 nM and above 30000 nM, respectively. Moreover, the Emax is 78.5% in data set [2] and around 0% in data set [3].
For `c1ccc([C@]2(CCNCc3cccc4c3CCC4)CCO[C@]3(CCOC3)C2)nc1` [(+)-19], in that order: 4.5 nM, above 30000 nM, 69.9% and around 0%.
The corresponding values for `Clc1ccc(CNCC[C@@]2(c3ccccn3)CCO[C@]3(CCOC3)C2)cc1Cl` [(+)-20] are 3.1 nM, above 30000 nM, 99.6% and around 0%.
The corresponding values for `Clc1cc(Cl)cc(CNCC[C@@]2(c3ccccn3)CCO[C@]3(CCOC3)C2)c1` [(+)-21] are 2.2 nM, above 30000 nM, 92.3% and around 0%.
In the case of `c1ccc([C@]2(CCN[C@H]3CCc4ccccc43)CCO[C@]3(CCOC3)C2)nc1` [(+)-25], the Emax is 90% in data set [2] and around 0% in data set [3]. For the same compound, the 50% effective concentration (EC50) in data set [3] (setting [5]) was above 30000 nM.
`Fc1ccc([C@]2(CCN[C@H]3CCCc4ccccc43)CCO[C@]3(CCOC3)C2)nc1` [(+)-26]: the figures for the EC50 in data set [2] and in data set [3] (setting [5]) were 0.2 nM and above 30000 nM, respectively. The figures for the maximal effect (Emax) in data set [2] and in data set [3] were 96% and around 0%, respectively.
For `c1ccc([C@]2(CCN[C@H]3CCCc4ccccc43)CCO[C@]3(CCOC3)C2)nc1` [(+)-27], in that order: 0.8 nM, above 30000 nM, 91% and around 0%.
On to `Fc1ccc([C@]2(CCNCc3scc4c3CCC4)CCO[C@]3(CCOC3)C2)cc1` [Formate Salt of (+)-4], for which the half-maximal effective concentration (EC50) in data set [2] is 0.07 nM; in data set [3] (setting [5]), above 30000 nM. In data set [3], the maximal response (Emax) is around 0%.
Regarding `Fc1ccc([C@]2(CCNCc3scc4c3COC4)CCO[C@]3(CCOC3)C2)cc1` [Hydrochloride Salt of (+)-12], the EC50 was 6.8 nM in data set [2] and above 30000 nM in data set [3] (setting [5]). In data set [3], this compound registered an Emax of around 0%.
Take `Fc1ccc([C@]2(CCNCc3cc(Cl)cc(Cl)c3)CCO[C@]3(CCOC3)C2)nc1` [Hydrochloride Salt of (+)-24]: the values for the EC50 in data set [2] and in data set [3] (setting [5]) were 0.2 nM and above 30000 nM, respectively. For the same compound, the figures for the Emax in data set [2] and in data set [3] were 95% and around 0%, respectively.
In data set [2], `c1ccc([C@]2(CCNCc3cc4c(s3)CCC4)CCOC3(CCCC3)C2)nc1` [compound 2, reference compound] had an Emax of 105%. In data set [3], this compound displayed an EC50 of 500 nM and a maximum response (Emax) of 35.2%.
